Earlier results, collected in patent publication US11419835B2, “Method of treatment and prevention of bacterial vaginosis” (EVOFEM, INC., priority 2016, dated 2022).

System: HIV
Conditions: compared with D or racemic lactic acid

C[C@H](O)C(=O)O [L-lactic acid, L-(+)-lactic acid]
potency in inactivating HIV: more potent in inactivating HIV than D or racemic lactic acid
